According to paper PMC5892879, “Structures of the Mycobacterium tuberculosis GlpX protein (class II fructose-1,6-bisphosphatase): implications for the active oligomeric state, catalytic mechanism and citrate inhibition” (Acta Crystallographica. Section D, Structural Biology, 2018):
Values joined by “and” are separate entries in the source; they are usually repeats but may differ in a detail not shown here. Identical values can stand only once. “Also recorded” adds a separate entry of the source. Like-named read-outs stand apart in the source and are kept apart here.

Experiments:
[1] = biological target: T1, MtFBPaseII (Mycobacterium tuberculosis, UniProt P9WN21); experiment: FBPase activity of wild-type MtFBPaseII, malachite green assay; format: biochemical; conditions: for IC50: wild-type MtFBPaseII, malachite green assay, fit of triplicate data, standard error reported; for Effect on MtFBPaseII activity (in words): TCA cycle intermediates tested for inhibitory activity
T1 construct: His-tag (N); made in house
Description: The FBPase activity of wild-type MtFBPaseII was measured using the malachite green assay (Bondoc et al., 2017[▸]) in the presence of α-ketoglutarate, citrate, isocitrate, malate, malonate and oxaloacetate. Compounds were tested in triplicate at concentrations of 5000, 3000, 2500, 1300, 630, 310 and 160 µM with positive (no compound) and negative (no enzyme) controls in parallel. Fitting was performed with GraphPad Prism (v.7.0b; GraphPad Software, La Jolla, California, USA). The coupled assay (Bondoc et al., 2017[▸]) was used to obtain kinetic data, which were fitted to a nonlinear Michaelis–Menten equation.

[2] = tested on: EcFBPaseI; set-up: method as in Hines et al., 2007; conditions: in the presence of 5 µM AMP, ref Hines et al., 2007; cited from earlier work
[3] = IC50 values of compounds against MtFBPaseII
[4] = read-out: IC50 values of compounds against MtFBPaseII

T1 sequence (P9WN21 whole entry): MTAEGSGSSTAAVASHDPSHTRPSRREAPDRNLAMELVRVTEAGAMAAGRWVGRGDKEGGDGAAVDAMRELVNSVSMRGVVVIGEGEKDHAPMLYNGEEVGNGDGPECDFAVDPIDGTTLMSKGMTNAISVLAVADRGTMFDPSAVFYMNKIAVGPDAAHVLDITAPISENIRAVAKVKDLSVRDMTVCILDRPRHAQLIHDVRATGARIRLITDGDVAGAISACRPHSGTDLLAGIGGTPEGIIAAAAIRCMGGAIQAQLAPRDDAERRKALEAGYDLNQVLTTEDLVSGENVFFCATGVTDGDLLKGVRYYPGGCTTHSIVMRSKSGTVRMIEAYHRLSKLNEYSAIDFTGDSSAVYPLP

SMILES: O=C(O)CC(O)(CC(=O)O)C(=O)O [Citrate]
- IC50 [1, 3]: ~2 mM and 2 mM
- Concentration range resulting in activation of the enzyme [2]: 0.5 to 5 mM

SMILES: O=C(O)CC(C(=O)O)C(O)C(=O)O (centres unmarked) [Isocitrate]
- Effect on MtFBPaseII activity (in words) [1]: no effect
- Inhibition of MtFBPaseII ([1]; up to a concentration of 5 mM): did not inhibit; also recorded: did not have any measureable activity

SMILES: O=C(O)CC(O)C(=O)O (centres unmarked) [Malate, malate]
- IC50 [1, 3]: 3.3 ± 0.1 mM

SMILES: O=C(O)CC(=O)O [Malonate, malonate]
- Concentration with a weak effect on the activity of the enzyme ([1]; MtFBPaseII, Fig. 4): 3 to 4 mM
- IC50 [1, 4]: 3.2 ± 0.1 mM

SMILES: O=C(O)CC(=O)C(=O)O [Oxaloacetate]
- IC50 [1, 3]: 6.4 ± 0.5 mM
- Effect on MtFBPaseII activity (in words) [1]: limited effect

SMILES: C=C(OP(=O)(O)O)C(=O)O [PEP, phosphoenolpyruvate]
- Concentration range resulting in activation of the enzyme [2]: 0.5 to 5 mM

SMILES: O=C(O)CCC(=O)C(=O)O [α-Ketoglutarate, α-ketoglutarate]
- IC50 [1, 4]: 3.1 ± 0.2 mM
